The source made the active and inactive calls. The rule behind the calls is not given here.
What was measured:
[1] = test system: HT-1080; test: Inhibition of RSL3-induced ferroptosis in human HT-1080 cells assessed as cell viability incubated for 24 hrs by CCK8 assay; format: functional, cell-based; details: for EC50: HT-1080, 24 h
[2] = test system: HT-1080; test: Inhibition of RSL3-induced ferroptosis in human HT-1080 cells assessed as cell viability at 0.5 uM incubated for 24 hrs by CCK8 assay; format: functional, cell-based
[3] = Antioxidant activity assessed as DPPH radical scavenging activity at 10 uM incubated for 30 mins by absorbance based assay; format: functional

Compound	EC50 [1] [nM]	inhibition [1]	inhibition [2]	Activity [3]
N#Cc1ccc(CSc2nnc(-c3cccc(O)c3N)o2)cc1	528	–	–	–
Nc1c(O)cccc1-c1nnc(SCc2ccc(F)cc2)o1	348	–	–	–
COC(=O)c1cccc(O)c1N	526	Dose-Dependent Effect	–	–
Nc1c(O)cccc1C(=O)N/N=C/c1ccccc1	274	–	–	–
CCCOC(=O)c1cccc(O)c1N	302	–	Active	Active
Cn1c(-c2cccc(O)c2N)nc2ccccc21	237	–	–	–
Nc1c(O)cccc1C(=O)N/N=C/c1ccc(C(=O)O)cc1	> 1000	–	–	–
Nc1c(O)cccc1-c1nnc(SCC(=O)O)o1	> 1000	–	–	–
CCCCOC(=O)c1cccc(O)c1N	385	–	Active	Active
Nc1c(O)cccc1-c1nnc(SCc2ccccc2)o1	238	–	–	–
Nc1c(O)cccc1C(=O)N/N=C/c1ccccn1	191	–	–	–
CC(C)OC(=O)c1cccc(O)c1N	388	–	Active	Active
Nc1c(O)cccc1C(=O)N/N=C/c1ccc([N+](=O)[O-])cc1	649	–	–	–
Nc1c(O)cccc1-c1nnc(S)o1	366	–	–	–

From ChEMBL document CHEMBL5506073, “Discovery of Novel Ortho-Aminophenol Derivatives Targeting Lipid Peroxidation with Potent Antiferroptotic Activities” (J Med Chem, 2024)
